# Measurements taken from US5641760A, “Method of treating candida infection” (Pence, Inc., priority 1994, dated 1997).
# System: Candida albicans strain #40 fimbriae (enriched fimbriae EF, 66 kDa fimbrial subunit/adhesin protein)
# Assay: Inhibition of fimbriae binding to immobilized βGalNAc(1-4)βGal-BSA conjugate
# Settings: plates coated with 10 μg/ml conjugate
# Description: Further experiments to determine the specificity of fimbrial binding to GSLs were carried out using a plate binding assay, as described above, but immobilizing on the plates a βGalNAc(1-4)βGal-BSA conjugate, synthesized from βGalNAc(1-4)βGal-O(CH2)8 COOCH3 (Sabesan and Lemieux), as described in Part B, above. The coupling ratio of disaccharide: BSA was 12:1. The protocol utilized for this assay was similar to that employed for the assessment of C. albicans fimbriae binding to GSLs except that the plates were coated with 100 μl/well of a 10 μg/ml solution of synthetic βGalNAc(1-4)βGal-BSA conjugate in 0.01M carbonate buffer, pH 9.5.
# Using this assay, it was first determined that fimbriae bind to the βGalNAc(1-4)βGal-BSA conjugate in a saturable, concentration-dependent manner. FIGS. 12A and 12B show the results of experiments in which compounds were tested for ability to inhibit binding of fimbriae to the βGalNAc(1-4)βGal-BSA conjugate. The protocol used in this assay was similar to the one used in the GSL inhibition assay described above, except that the plates were coated with 100 μl/well of a 10 μg/ml solution of synthetic βGalNAc(1-4)βGal-BSA conjugate in 0.01M carbonate buffer, pH 9.5. As depicted in FIG. 12A, βGalNAc(1-4)βGal-methylester ("GalNAcGal") was able to inhibit binding to the GalNAcGal-BSA conjugate in a concentration dependent manner. […]
substance,measurement,value
gangliotetraosylceramide: βGal(1-3)βGalNAc(1-4)βGal(1-4)βGlc(1-1)Cer [asialo-GM1],Concentration required for half-maximal inhibition of fimbriae binding to βGalNAc(1-4)βGal-BSA conjugate,7.5 µg/mL
